Results: patent publication US10131702B2, “Glucagon-GLP-1-GIP triple agonist compounds” (priority 2013, dated 2018)
Where two headings read alike, the source gives them in different places. Numbered stars: 1 amine (or outer) side, 2 acyl side, 3 side chain; on linkers, the order of the positions; unused ones are H or OH. Square brackets hold non-standard residues; d marks the D form. Side chains are listed from the residue outwards. Peptide text beside a SMILES is read from it. * marks the point of attachment. C18 diacid = O=C(O)CCCCCCCCCCCCCCCCC(=O)*; γGlu = O=C(O)[C@H](CCC(=O)[*:2])N[*:1]; AEEA = NCCOCCOCC(=O)O; Aib = CC(C)(N)C(=O)O

Experiments:
Format in all cases: cell-based
human GIP R = target: T1, human GIP R (Homo sapiens, UniProt P48546); assay: cAMP induction in HEK293 cells expressing human GIP R (AlphaScreen cAMP kit)
T1 construct: expressed in transfected cells
T1 sequence (P48546 22-466): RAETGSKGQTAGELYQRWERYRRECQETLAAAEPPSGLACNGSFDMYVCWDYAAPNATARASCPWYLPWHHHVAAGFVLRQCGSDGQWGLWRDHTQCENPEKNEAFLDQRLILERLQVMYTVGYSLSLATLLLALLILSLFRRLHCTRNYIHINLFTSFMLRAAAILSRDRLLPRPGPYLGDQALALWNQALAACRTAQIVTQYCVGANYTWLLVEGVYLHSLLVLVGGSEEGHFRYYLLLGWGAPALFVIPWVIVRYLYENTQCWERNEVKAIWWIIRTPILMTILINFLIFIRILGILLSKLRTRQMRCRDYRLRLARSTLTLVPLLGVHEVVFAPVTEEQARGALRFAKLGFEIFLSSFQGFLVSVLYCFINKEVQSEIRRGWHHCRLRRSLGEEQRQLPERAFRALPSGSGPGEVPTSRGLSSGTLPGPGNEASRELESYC
Protocol: (§1) Briefly, HEK293 cells expressing the human GIP R, GLP-1 R or GCG R (stable cell lines generated through transfection of the cDNA for human GIP R, GLP-1 R or GCG R and selection of stable clones) were seeded at 30,000 cells/well in 96-well microtiter plates coated with 0.01% poly-L-lysine, and grown for 1 day in culture in 200 μl growth medium (DMEM, 10% FCS, Penicillin (100 IU/ml), Streptomycin (100 μg/ml)). On the day of analysis, growth medium was removed and the cells were washed once with 150 μl Tyrode's buffer (Tyrode's Salts (9.6 g/l), 10 mM HEPES, pH 7.4). […] The Assay buffer was removed and cells are lysed in 80 μl Lysis buffer (0.1% w/v BSA, 5 mM HEPES, 0.3% v/v Tween-20) per well. From each well 10 μl of lysed cells were transferred to a 384-well plate and mixed with 15 μl bead-mix (1 Unit/15 μl anti-cAMP Acceptor Beads, 1 Unit/15 μl Donor Beads, and 1 Unit/15 μl Biotinylated cAMP in Assay Buffer). The plates were mixed and incubated in the dark for an hour at room temperature before measuring using an Envision™ plate reader (Perkin-Elmer).
(§2) The resulting cAMP curves were plotted as absolute cAMP concentrations (nM) over log (test compound concentration) and analyzed using the curve fitting program XLfit.
(§3) Parameters calculated to describe both the potency as well as the agonistic activity of each test compound on the receptors were:
(§4) EC50, a concentration resulting in a half-maximal elevation of cAMP levels, reflecting the potency of the test compound.

human GCG R = target: T2, human GCG R (Homo sapiens, UniProt P47871); assay: cAMP induction in HEK293 cells expressing human GCG R (AlphaScreen cAMP kit)
T2 construct: expressed in transfected cells
T2 sequence (P47871 26-477): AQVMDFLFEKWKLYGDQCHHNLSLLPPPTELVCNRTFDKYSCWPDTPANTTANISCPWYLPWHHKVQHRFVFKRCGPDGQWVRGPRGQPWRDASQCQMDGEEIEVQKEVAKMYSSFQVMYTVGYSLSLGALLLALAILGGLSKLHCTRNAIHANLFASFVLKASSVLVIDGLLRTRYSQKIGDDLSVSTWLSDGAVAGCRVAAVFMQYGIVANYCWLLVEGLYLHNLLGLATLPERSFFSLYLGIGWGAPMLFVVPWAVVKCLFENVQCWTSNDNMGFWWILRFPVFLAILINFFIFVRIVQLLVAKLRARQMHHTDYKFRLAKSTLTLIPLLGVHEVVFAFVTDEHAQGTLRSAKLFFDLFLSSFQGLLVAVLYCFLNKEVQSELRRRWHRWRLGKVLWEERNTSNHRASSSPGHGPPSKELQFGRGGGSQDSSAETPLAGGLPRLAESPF
Protocol: as §1, §2, §3, §4

human GLP-1 R = target: T3, human GLP-1 R (Homo sapiens, UniProt P43220); assay: cAMP induction in HEK293 cells expressing human GLP-1 R (AlphaScreen cAMP kit); settings: average EC50, cAMP, HEK293 cells expressing human GLP-1 R, read-out: GLP1 R (EC50 in nM)
T3 construct: expressed in transfected cells
T3 sequence (P43220 24-463): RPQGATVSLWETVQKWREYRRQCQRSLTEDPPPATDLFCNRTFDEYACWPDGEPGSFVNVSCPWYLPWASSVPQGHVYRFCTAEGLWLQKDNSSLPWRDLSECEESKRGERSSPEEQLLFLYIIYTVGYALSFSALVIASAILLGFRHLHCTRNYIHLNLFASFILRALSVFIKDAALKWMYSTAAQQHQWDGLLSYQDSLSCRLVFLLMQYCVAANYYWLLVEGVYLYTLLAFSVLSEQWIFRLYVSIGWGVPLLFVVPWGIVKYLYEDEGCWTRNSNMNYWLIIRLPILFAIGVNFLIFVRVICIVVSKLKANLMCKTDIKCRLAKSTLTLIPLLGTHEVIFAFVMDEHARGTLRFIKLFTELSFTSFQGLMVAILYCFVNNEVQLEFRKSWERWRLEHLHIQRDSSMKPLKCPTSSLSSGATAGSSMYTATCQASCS

[1] = GIP R (EC50 in nM), Table 2, average EC50, cAMP
[2] = Table 2b (most comprehensive data)
[3] = GIP R (EC50 in nM), Table 2b (most comprehensive data), average EC50, cAMP

`CC[C@H](C)[C@H](NC(=O)[C@H](CO)NC(=O)[C@H](Cc1ccc(O)cc1)NC(=O)[C@H](CC(=O)O)NC(=O)[C@H](CO)NC(=O)[C@@H](NC(=O)[C@H](Cc1ccccc1)NC(=O)[C@@H](NC(=O)CNC(=O)[C@H](CCC(N)=O)NC(=O)C(C)(C)NC(=O)[C@@H](N)Cc1ccc(O)cc1)[C@@H](C)O)[C@@H](C)O)C(=O)N[C@@H](Cc1ccc(O)cc1)C(=O)N[C@@H](CC(C)C)C(=O)N[C@@H](CCC(=O)O)C(=O)N[C@@H](CO)C(=O)N[C@@H](CCCCN)C(=O)N[C@@H](C)C(=O)N[C@@H](C)C(=O)N[C@@H](Cc1c[nH]cn1)C(=O)N[C@@H](CC(=O)O)C(=O)N[C@@H](Cc1ccccc1)C(=O)N[C@H](C(=O)N[C@@H](CCC(=O)O)C(=O)N[C@@H](Cc1c[nH]c2ccccc12)C(=O)N[C@@H](CC(C)C)C(=O)N[C@@H](CC(C)C)C(=O)N[C@@H](CO)C(=O)N[C@@H](C)C(N)=O)C(C)C` [Compound 18] (HELM PEPTIDE1{Y.[Aib].Q.G.T.F.T.S.D.Y.S.I.Y.L.E.S.K.A.A.H.D.F.V.E.W.L.L.S.A.[am]}$$$$V2.0) gave an EC50 (human GIP R; [1]) of 0.07 nM, an EC50 (human GCG R) of 0.15 nM and an EC50 (human GLP-1 R; Table 2) of 0.021 nM. For the same compound, the EC50 (human GLP-1 R; [2]) was 0.15 nM.

`CC(C)C[C@H](NC(=O)[C@H](CC(C)C)NC(=O)[C@H](Cc1c[nH]c2ccccc12)NC(=O)[C@H](CCC(=O)O)NC(=O)[C@@H](NC(=O)[C@H](Cc1ccccc1)NC(=O)[C@H](CC(=O)O)NC(=O)[C@H](Cc1c[nH]cn1)NC(=O)[C@H](C)NC(=O)[C@H](C)NC(=O)[C@H](CCCCN)NC(=O)[C@H](CO)NC(=O)[C@H](CC(=O)O)NC(=O)[C@H](CC(C)C)NC(=O)[C@H](Cc1ccc(O)cc1)NC(=O)[C@H](CCCCN)NC(=O)[C@H](CO)NC(=O)[C@H](Cc1ccc(O)cc1)NC(=O)[C@H](CC(=O)O)NC(=O)[C@H](CO)NC(=O)[C@@H](NC(=O)[C@H](Cc1ccccc1)NC(=O)[C@@H](NC(=O)CNC(=O)[C@H](CCC(N)=O)NC(=O)C(C)(C)NC(=O)[C@@H](N)Cc1ccc(O)cc1)[C@@H](C)O)[C@@H](C)O)C(C)C)C(=O)N[C@@H](CCCNC(=N)N)C(=O)N[C@@H](C)C(N)=O` [Compound 3] (HELM PEPTIDE1{Y.[Aib].Q.G.T.F.T.S.D.Y.S.K.Y.L.D.S.K.A.A.H.D.F.V.E.W.L.L.R.A.[am]}$$$$V2.0) was tested, and the EC50 (human GIP R; [1]) was 0.13 nM, the EC50 (human GIP R; [3]) was 0.015 nM and the EC50 (human GCG R) was 0.022 nM. For the same compound, the EC50 (human GLP-1 R; Table 2) was 0.015 nM and the EC50 (human GLP-1 R; [2]) was 0.022 nM.

For `CC[C@H](C)[C@H](NC(=O)[C@H](CO)NC(=O)[C@H](Cc1ccc(O)cc1)NC(=O)[C@H](CC(=O)O)NC(=O)[C@H](CO)NC(=O)[C@@H](NC(=O)[C@H](Cc1ccccc1)NC(=O)[C@@H](NC(=O)CNC(=O)[C@H](CCC(N)=O)NC(=O)C(C)(C)NC(=O)[C@@H](N)Cc1ccc(O)cc1)[C@@H](C)O)[C@@H](C)O)C(=O)N[C@@H](Cc1ccc(O)cc1)C(=O)N[C@@H](CC(C)C)C(=O)N[C@@H](CCC(=O)O)C(=O)N[C@@H](CCCCN)C(=O)N[C@@H](CCCCNC(=O)COCCOCCNC(=O)COCCOCCNC(=O)CC[C@H](NC(=O)CCCCCCCCCCCCCCCCC(=O)O)C(=O)O)C(=O)N[C@@H](C)C(=O)N[C@@H](CCC(N)=O)C(=O)N[C@@H](CCCNC(=N)N)C(=O)N[C@@H](C)C(=O)N[C@@H](Cc1ccccc1)C(=O)N[C@H](C(=O)N[C@@H](CCC(=O)O)C(=O)N[C@@H](Cc1c[nH]c2ccccc12)C(=O)N[C@@H](CC(C)C)C(=O)N[C@@H](CC(C)C)C(=O)N[C@@H](CCCNC(=N)N)C(=O)N[C@@H](C)C(N)=O)C(C)C` [Compound 51] (H-Y[Aib]QGTFTSDYSIYLEKK([AEEA-AEEA-γGlu-C18 diacid])AQRAFVEWLLRA-NH2), the EC50 (human GIP R; Table 2b (most comprehensive data), average EC50, cAMP, read-out: GIP R (EC50 in nM)) was 0.033 nM, the EC50 (human GCG R; Table 2b (most comprehensive data), average EC50, cAMP, HEK293 cells expressing human GCG R, read-out: GCG R (EC50 in nM)) was 1.4 nM and the EC50 (human GLP-1 R; [2]) was 0.026 nM.

`CC[C@H](C)[C@H](NC(=O)[C@H](CO)NC(=O)[C@H](Cc1ccc(O)cc1)NC(=O)[C@H](CC(=O)O)NC(=O)[C@H](CO)NC(=O)[C@@H](NC(=O)[C@H](Cc1ccccc1)NC(=O)[C@@H](NC(=O)CNC(=O)[C@H](CCC(N)=O)NC(=O)C(C)(C)NC(=O)[C@@H](N)Cc1ccc(O)cc1)[C@@H](C)O)[C@@H](C)O)C(=O)N[C@@H](Cc1ccc(O)cc1)C(=O)N[C@@H](CC(C)C)C(=O)N[C@@H](CC(=O)O)C(=O)N[C@@H](CCC(=O)O)C(=O)N[C@@H](CCCCN)C(=O)N[C@@H](C)C(=O)N[C@@H](C)C(=O)N[C@@H](Cc1c[nH]cn1)C(=O)N[C@@H](CC(=O)O)C(=O)N[C@@H](Cc1ccccc1)C(=O)N[C@H](C(=O)N[C@@H](CCC(=O)O)C(=O)N[C@@H](Cc1c[nH]c2ccccc12)C(=O)N[C@@H](CC(C)C)C(=O)N[C@@H](CC(C)C)C(=O)N[C@@H](CO)C(=O)N[C@@H](C)C(N)=O)C(C)C` [Compound 9] (HELM PEPTIDE1{Y.[Aib].Q.G.T.F.T.S.D.Y.S.I.Y.L.D.E.K.A.A.H.D.F.V.E.W.L.L.S.A.[am]}$$$$V2.0) was tested, and the EC50 (human GIP R; [1]) was 0.056 nM, the EC50 (human GCG R) was 0.097 nM and the EC50 (human GLP-1 R; Table 2) was 0.0055 nM.

In the case of `CC(C)C[C@H](NC(=O)[C@H](CC(C)C)NC(=O)[C@H](Cc1c[nH]c2ccccc12)NC(=O)[C@H](CCC(=O)O)NC(=O)[C@@H](NC(=O)[C@H](Cc1ccccc1)NC(=O)[C@H](CC(=O)O)NC(=O)[C@H](Cc1c[nH]cn1)NC(=O)[C@H](C)NC(=O)[C@H](C)NC(=O)[C@H](CCCCN)NC(=O)[C@H](CO)NC(=O)[C@H](CCC(=O)O)NC(=O)[C@H](CC(C)C)NC(=O)[C@H](Cc1ccc(O)cc1)NC(=O)[C@H](CCCCN)NC(=O)[C@H](CO)NC(=O)[C@H](Cc1ccc(O)cc1)NC(=O)[C@H](CC(=O)O)NC(=O)[C@H](CO)NC(=O)[C@@H](NC(=O)[C@H](Cc1ccccc1)NC(=O)[C@@H](NC(=O)CNC(=O)[C@H](CCC(N)=O)NC(=O)C(C)(C)NC(=O)[C@@H](N)Cc1ccc(O)cc1)[C@@H](C)O)[C@@H](C)O)C(C)C)C(=O)N[C@@H](CO)C(=O)N[C@@H](C)C(N)=O` [Compound 8] (HELM PEPTIDE1{Y.[Aib].Q.G.T.F.T.S.D.Y.S.K.Y.L.E.S.K.A.A.H.D.F.V.E.W.L.L.S.A.[am]}$$$$V2.0), the EC50 (human GIP R; [1]) is reported as 0.2 nM, the EC50 (human GIP R; [3]) is reported as 0.015 nM and the EC50 (human GCG R) is reported as 0.042 nM. The EC50 (human GLP-1 R; Table 2) was 0.015 nM.

For `CCCCCCCCCCCCCCCC(=O)N[C@@H](CCC(=O)NCCCC[C@H](NC(=O)[C@H](CO)NC(=O)[C@H](CC(=O)O)NC(=O)[C@H](CC(C)C)NC(=O)[C@H](Cc1ccc(O)cc1)NC(=O)[C@H](CCCCN)NC(=O)[C@H](CO)NC(=O)[C@H](Cc1ccc(O)cc1)NC(=O)[C@H](CC(=O)O)NC(=O)[C@H](CO)NC(=O)[C@@H](NC(=O)[C@H](Cc1ccccc1)NC(=O)[C@@H](NC(=O)CNC(=O)[C@H](CCC(N)=O)NC(=O)C(C)(C)NC(=O)[C@@H](N)Cc1ccc(O)cc1)[C@@H](C)O)[C@@H](C)O)C(=O)N[C@@H](C)C(=O)N[C@@H](C)C(=O)N[C@@H](Cc1c[nH]cn1)C(=O)N[C@@H](CC(=O)O)C(=O)N[C@@H](Cc1ccccc1)C(=O)N[C@H](C(=O)N[C@@H](CCC(=O)O)C(=O)N[C@@H](Cc1c[nH]c2ccccc12)C(=O)N[C@@H](CC(C)C)C(=O)N[C@@H](CC(C)C)C(=O)N[C@@H](CO)C(=O)N[C@@H](C)C(N)=O)C(C)C)C(=O)O` [Compound 2] (HELM PEPTIDE1{Y.[Aib].Q.G.T.F.T.S.D.Y.S.K.Y.L.D.S.K.A.A.H.D.F.V.E.W.L.L.S.A.[am]}|PEPTIDE2{[CCCCCCCCCCCCCCCC(=O)[*:2]].[gGlu]}$PEPTIDE1,PEPTIDE2,17:R3-2:R2$$$V2.0), the EC50 (human GIP R; [1]) was 0.35 nM, the EC50 (human GCG R) was 0.046 nM and the EC50 (human GLP-1 R; Table 2) was 0.089 nM.
